Data published in article PMC6399351, “Cationic Intrinsically Disordered Antimicrobial Peptides (CIDAMPs) Represent a New Paradigm of Innate Defense with a Potential for Novel Anti-Infectives” (Scientific Reports, 2019).
Square brackets hold non-standard residues; d marks the D form. Ends that are not written are not given here. Peptide text beside a SMILES is read from it.

These compounds were tested on P. aeruginosa ATCC 10145. Settings: CFU assay, 10 mM NaP, pH 5.5, 0.25% glucose.
“HTHSGHAHGQAGSQHGESGSSVHER [FLG-22044-2068]” showed an LD90 of 0.038 µg/mL and an LD100 of 0.3 µg/mL.
For “HAHSGHGQSTQRGSRTAGRRGSGH [FLG-22082-2105]”, the LD90 was < 0.038 µg/mL and the LD100 was 0.075 µg/mL.
HSSSHGQHGSGSGR [HR 1-38] was tested, and the LD100 was > 300 µg/mL.
LGHSSSHGQHGSGSGRSSSRGPYESRLGH [HR 1-36] showed an LD90 of 0.15 µg/mL and an LD100 of 2.35 µg/mL.
For THEHEQSHQRRDRQTHEDKQNRQR [RPTN747-770], the LD90 was 0.3 µg/mL and the LD100 was 150 µg/mL.
In the case of GRHGSGSGHSSSHGQHGSGSGR [HRNR2186-2207], the LD100 is reported as 4.7 to 9.37 µg/mL.
For GRHGSGLGHSSSH [HR 1-37], the LD90 was 9.38 µg/mL and the LD100 was > 300 µg/mL.
`CC(C)C[C@@H](NC(=O)CNC(=O)[C@@H](CO)NC(=O)CNC(=O)[C@@H](Cc1c[nH]cn1)NC(=O)[C@@H](CCCNC(=N)N)NC(=O)CN)C(=O)NCC(=O)N[C@H](Cc1c[nH]cn1)C(=O)N[C@H](CO)C(=O)N[C@H](CO)C(=O)N[C@H](CO)C(=O)N[C@H](Cc1c[nH]cn1)C(=O)NCC(=O)N[C@H](CCC(N)=O)C(=O)N[C@H](Cc1c[nH]cn1)C(=O)NCC(=O)N[C@H](CO)C(=O)NCC(=O)N[C@H](CO)C(=O)NCC(=O)N[C@H](CCCNC(=N)N)C(=O)O` [(D)HR 1-18] (H-G[dR][dH]G[dS]G[dL]G[dH][dS][dS][dS][dH]G[dQ][dH]G[dS]G[dS]G[dR]-OH; N-terminus and C-terminus assumed) was tested, and the LD90 was 0.038 µg/mL and the LD100 was 0.3 µg/mL.
With HGSGLGHSSSHGQHGSGSGR [HR 1-8] the LD90 was 4.7 µg/mL and the LD100 was > 300 µg/mL.
In the case of TAGRRGSGH [FLG-22097-2105], the LD90 is reported as > 300 µg/mL and the LD100 is reported as > 300 µg/mL.
“HTHSGHTHGQSGSQHGESESIIHDR [FLG-21515-1539]” showed an LD90 of 0.075 µg/mL and an LD100 of 0.59 µg/mL.
“GRHGSGGGHSSSHGGHGSGSGR [HR 1-18,L-G/Q-G]” gave an LD100 of 0.15 µg/mL.
HAHSGHGQSTQR [FLG-22082-2093] was tested, and the LD90 was 0.15 µg/mL and the LD100 was 2.35 µg/mL.
For “GRGGSGLGGSSSGGQGGSGSGRSSSRGPY [HR 1-174H-4G]”, the LD90 was 75 µg/mL and the LD100 was > 300 µg/mL.
In the case of RGSGSGHQGHSSSHGLGSGHRG [rev-HR 1-18], the LD90 is reported as < 0.019 µg/mL and the LD100 is reported as 0.3 µg/mL.
HAHSGHGQSTQRGSR [FLG-22082-2096] showed an LD90 of 0.15 µg/mL and an LD100 of 1.18 µg/mL.
With GRHGSGLGHSSSHGQH [HR 1-25] the LD90 was 0.3 µg/mL and the LD100 was 4.7 µg/mL.
GSRTAGRRGSGH [FLG-22094-2105] was tested, and the LD100 was > 300 µg/mL.
In the case of SLSSGHGSGHGHQRGGHRSGSG [scr-HR 1-18], the LD90 is reported as < 0.019 µg/mL and the LD100 is reported as 0.15 µg/mL.
“HTHSGHTHGQARSQHGESESIVHER [FLG-21742-1766]” gave an LD90 of 0.038 µg/mL and an LD100 of 0.15 µg/mL.
“HAHYGYGQSTQRGSRTTGRRGSGH [FLG-22232-2255]” gave an LD90 of 0.075 µg/mL and an LD100 of 0.59 µg/mL.
“GGHGSGLGHSSSHGQHGSGSGRSSSRGPY [HR 1-17R1-G]” was tested, and the LD90 was 0.038 µg/mL and the LD100 was 0.3 µg/mL.
With “GRHGSGLGHSSSHGQHGSGSGGSSSRGPY [HR 1-17R2-G]” the LD90 was 0.038 µg/mL and the LD100 was 0.15 µg/mL.
Work on HSQRGSGSRQSPSYGRH [HR 2-16] yielded an LD100 of 37.5 µg/mL.
In the case of HGQSTQRGSRTAGRRGSGH [FLG-22087-2105], the LD90 is reported as 0.075 µg/mL and the LD100 is reported as 1.18 µg/mL.
“HTHSGHTHSQARSQHGESESTVHKR [FLG-21894-1918]” showed an LD90 of 0.038 µg/mL and an LD100 of 0.3 µg/mL.
“GRHGGGGGHGGGHGGHGGGGGR [HR 1-18,L-G/Q-G/6S-6G]” gave an LD100 of 0.15 µg/mL.
HGSRSGQSSRGERHGSSSGSSSH [HR 1-11] was tested, and the LD90 was 0.075 µg/mL.
Work on “HTHSGHTHGQAGSHYPESGSSVHER [FLG-21969-1993]” yielded an LD90 of 0.038 µg/mL and an LD100 of 0.3 µg/mL.
With “GRHGSGLGHSSSHGQHGSGSGRSSSGGPY [HR 1-17R3-G]” the LD90 was 0.038 µg/mL and the LD100 was 0.15 to 0.3 µg/mL.

Same assay, conditions: CFU assay, 10 mM NaP, pH 5.5, 1% TSB
“GRHGSGSGQSSSYGPYGSGSGWSSSRGPY [HRNR1952-1980]” was tested, and the LD100 was > 300 µg/mL.
With “GRHGSGSGQSSSYSPYGSGSGWSSSRGPY [HRNR2422-2450]” the LD90 was 2.35 µg/mL and the LD100 was > 300 µg/mL.
For GSGSRQSPSYGR [HR 2-8], the LD90 was 37.5 µg/mL and the LD100 was > 300 µg/mL.
In the case of GSGSRQSPSRGRHGSGSGR [HR 2-4R], the LD100 is reported as > 300 µg/mL.
For GSRQSPSYGRHGSGSGR [HR 2-12], the LD90 was > 300 µg/mL and the LD100 was > 300 µg/mL.
QGSGSGQSPSR [HR 1-6] was tested, and the LD90 was > 300 µg/mL and the LD100 was > 300 µg/mL.
For GSGSRQSPSYGRHGSGSGR [HR 2-4], the LD90 was > 300 µg/mL and the LD100 was > 300 µg/mL.
For HGSGSGR [HR 2-9], the LD90 was > 300 µg/mL and the LD100 was > 300 µg/mL.
For GSGSRQSPSHGRHGSGSGR [HR 2-4H], the LD90 was 75 µg/mL and the LD100 was > 300 µg/mL.
In the case of QSSGHGR [HR 1-5], the LD90 is reported as > 300 µg/mL and the LD100 is reported as > 300 µg/mL.
For SRQSPSYGRHGSGSGR [HR 2-13], the LD90 was > 300 µg/mL and the LD100 was > 300 µg/mL.
In the case of SGQSSRGER [HR 1-3], the LD90 is reported as > 300 µg/mL and the LD100 is reported as > 300 µg/mL.
In the case of QGSGSGQSPSRGR [HR 1-7], the LD90 is reported as > 300 µg/mL and the LD100 is reported as > 300 µg/mL.
For HGSGLGHSSSHGQHGSGSGR [HR 1-8], the LD100 was > 300 µg/mL.
With HGSSSGSSSHYGQHGSGSR [HR 1-4] the LD90 was 150 µg/mL and the LD100 was > 300 µg/mL.
In the case of GSGSRQSPSYGRQGSGSGR [HR 2-4Q], the LD90 is reported as > 300 µg/mL and the LD100 is reported as > 300 µg/mL.
QGSGSGQSPGHSQRGSGSRQSPSY [HR 2-1] was tested, and the LD90 was > 300 µg/mL and the LD100 was > 300 µg/mL.
For SSSRGPY [HR 1-10], the LD90 was > 300 µg/mL and the LD100 was > 300 µg/mL.
In the case of SGQSSR [HR 1-2], the LD90 is reported as > 300 µg/mL and the LD100 is reported as > 300 µg/mL.
With GSGSRQSSGHGRQGSGSGQ [HR 1-16] the LD90 was > 300 µg/mL and the LD100 was > 300 µg/mL.
In the case of RQSPSYGRHGSGSGR [HR 2-14], the LD90 is reported as 300 µg/mL and the LD100 is reported as > 300 µg/mL.
With “GRHGSGSGQSSSYSPYGSGSGWSSSR [HRNR2422-2447]” the LD100 was > 300 µg/mL.
In the case of GSGSRQSSSYGRHGSGSGR [HR 2-4S], the LD90 is reported as 150 µg/mL and the LD100 is reported as > 300 µg/mL.
For GSGSRQSLSYGRHGSGSGR [HR 2-4L], the LD90 was 75 µg/mL and the LD100 was > 300 µg/mL.
In the case of QSPSYGR [HR 2-6], the LD90 is reported as > 300 µg/mL and the LD100 is reported as > 300 µg/mL.
In the case of GSGSRQSPSY [HR 2-2], the LD90 is reported as > 300 µg/mL and the LD100 is reported as > 300 µg/mL.
For SSSSR [HR 1-9], the LD100 was > 300 µg/mL.
“GRHGSGSGQSSSYGPYRSGSGWSSSRGPY [HRNR1013-1041]” was tested, and the LD100 was > 300 µg/mL.
SRQSPSYGRHGSGR [HR 2-15] was tested, and the LD90 was 75 µg/mL and the LD100 was > 300 µg/mL.
With QSPSYGRHGSGSGR [HR 2-5] the LD90 was > 300 µg/mL and the LD100 was > 300 µg/mL.
GSGSRQSPSYGRHGSGSGRSSSSGQH [HR 2-11] was tested, and the LD90 was 37.5 µg/mL and the LD100 was > 300 µg/mL.
In the case of SQHGSGSGHSSGYGQHGSR [HR 1-1], the LD90 is reported as > 300 µg/mL and the LD100 is reported as > 300 µg/mL.
For QSPSY [HR 2-3], the LD90 was > 300 µg/mL and the LD100 was > 300 µg/mL.
